The subject of data set [1] is pJSNX-GFP (SNX7 minigene ON-switch) in HEK293 cells. Put plainly: GFP expression from SNX7 minigene ON-switch in HEK293 cells (fluorescent microscope, FACS). The data set is classed as cell-based, human. The settings on record: LMI070 2 nm-1 uM, 48 hours post transfection, vs DMSO. The method, then:
(§1) HEK293 cells were maintained in complete DMEM media and seeded in 24-well plate at 100,000 cells per well densite day before transfection. Each well was transfected with 2 ug of pJSNX-GFP plasmid DNA using Lipofectamine2000 (Invitrogen) according to manufacturer's protocol. Transfection media was replaced with complete DMEM 4 hours later. Initial 1 mM stock of LMI070 in DMSO was diluted in 1/1,000-1/500,000 in DMEM to achieve concentrations 2 nm-1 uM when added to the cells in 24 hours later. Control cells received 0.1% DMSO. GFP expression was evaluated 48 hours post transfection using fluorescent microscope. […] For quantitative analysis of GFP expression, cells were trypsinized and analyzed by FACS using SONY SH-800 flow cytometer. Mean fluorescence intensity was used for relative measurement of GFP expression. […] For RNA splicing analysis, total RNA was extracted from cells using Trizol (Invitrogen) according to manufacturer's protocol. cDNA was synthesized using Superscript III 1st strand supermix for qRT-PCR (Invitrogen). Inclusion of exon B was evaluated using qPCR by measuring amounts of exonB-exonC amplified by […] […] Amounts of constitutively spliced RNA (i.e. exonA-exonC) was measured using […] […]

Data set [2] deals with SNX7 minigene exon B inclusion in HEK293 cells. Description: RNA splicing analysis by qPCR in pJSNX-GFP transfected HEK293 cells. It counts as cell-based, human. Here is the method:
as §1

The test system of data set [3] is SNX7 minigene exon B inclusion in primary rat neurons. Description: RNA splicing analysis by qPCR in pJSNX-GFP transfected primary rat neurons. It counts as cell-based. The method, then: Primary rat neurons were prepared from dissected rat embryo cortices digested with papain and cultured in complete Neurobasal media in 24-well poly-D-Lysine plates (Corning) at density 150,000 cells/well for 7 days. Half of the media was replaced with fresh media day before transfection. Each well was transfected with 2 ug of pJSNX-GFP plasmid DNA using Lipofectamine2000 (Invitrogen) according to manufacturer's protocol, except cells were washed three times with optiMEM before adding DNA-liposomes cocktails. Transfection media was replaced with conditioned media containing 50% fresh complete Neurobasal media 4 hours later. Next day, 1 mM stock of LMI070 in DMSO was diluted in 1/1,000-1/500,000 in DMEM to achieve concentrations 2 nm-1 uM when added to the cells. Control cells received 0.1% DMSO. GFP expression was evaluated 6 days post transfection using fluorescent microscope. […] For RNA splicing analysis, total RNA was extracted from cells using Trizol (Invitrogen) according to manufacturer's protocol. cDNA was synthesized using Superscript III 1st strand supermix for qRT-PCR (Invitrogen). Inclusion of exon B was evaluated using qPCR by measuring amounts of exonB-exonC amplified by […] […] Amounts of constitutively spliced RNA (i.e. exonA-exonC) was measured using […] […]

The subject of data set [4] is pSyn-snx7-PGRN (SNX7 switch) in primary rat neurons. Description: hPGRN expression by TR-FRET assay in pSyn-snx7-PGRN transfected primary rat neurons. The data set is classed as cell-based. As to conditions: 100 nm LMI070, 6 days post transfection. Here is the method:
(§2) Primary rat neurons were prepared from dissected rat embryo cortices digested with papain and cultured in complete Neurobasal media in 24-well poly-D-Lysine plates (Corning) at density 150,000 cells/well for 7 days. Half of the media was replaced with fresh media day before transfection. […] Transfection media was replaced with conditioned media containing 50% fresh complete Neurobasal media 4 hours later. Next day, 1 mM stock of LMI070 in DMSO was diluted in 1/10,000 in DMEM to achieve concentrations 100 nm when added to the cells. Control cells received 0.01% DMSO. hPGRN expression was measured 6 days post transfection using TR-FRET assay. In pSyn-snx7-PGRN transfected cells, expression of hPGRN was induced by LMI070 more than 30 times comparing to DMSO-treated control (FIG. 6B). For RNA splicing analysis, total RNA was extracted from cells using Trizol (Invitrogen) according to manufacturer's protocol. cDNA was synthesized using Superscript III 1st strand supermix for qRT-PCR (Invitrogen). Inclusion of exon B was evaluated using qPCR by measuring amounts of exonB-exonC junction amplified by […] (SEQ ID NO: 103) and GCGGTTGCGAGGTTTATCT (SEQ ID NO: 104) primers pair as compared to total transgene mRNA amplified by primers specific to exon C, GCGGTTGCGAGGTTTATCT (SEQ ID NO: 104) and […] (SEQ ID NO: 105). […] Amounts of constitutively spliced RNA (i.e. exonA-exonC) was measured using […] […]

For data set [5], the system named is SNX7 minigene exon B inclusion in primary rat neurons. Put plainly: RNA splicing analysis by qPCR in pSyn-snx7-PGRN transfected primary rat neurons. The data set is classed as cell-based. As to conditions: 100 nm LMI070. The method, then: as §2
Data set [6] deals with ssAAV9 hPGRN with SNX7 switch (version 1) in mouse brain. Put plainly: Time course of hPGRN expression in mouse brain after oral LMI070 (ssAAV9 SNX7 switch version 1, TR-FRET). The data set is classed as in vivo. The settings on record: C57Bl/6 mice. Here is the method:
ssAAV9 viral vector encoding hPGRN under control of synapsin promoter with SNX7 switch (version 1) was produced in HEK293 cells and purified by iodixanol. 2e10vg of AAV vector in 2 uL was injected ICV in C57Bl/6 neonatal mice at P0. At 4 weeks of age, 30 mg/kg of LMI070 or vehicle control was administered orally through gavage. 4-6 mice per group were taken down at specified time points (FIG. 7A). After transcardial perfusion with PBS posterior half of the left hemisphere was homogenyzed in Precellys tube. TR-FRET assay was used for measurement of human PGRN expressed from AAV vector. […] The transgenic protein expression returned to untreated levels after 4 days post LMI070 administration (FIG. 7B).
(In general: In TR-FRET formats the signal depends on donor and acceptor labels being close together.)

For data set [7] the test system is unchanged. Put plainly: Dose response of hPGRN expression in mouse brain after oral LMI070 (ssAAV9 SNX7 switch version 1, TR-FRET). The data set is classed as in vivo, FVB mice. The method, then: ssAAV9 viral vector encoding hPGRN under control of synapsin promoter with SNX7 switch (version 1) was produced in HEK293 cells and purified by iodixanol. 2e10vg of AAV vector in 2 uL was injected ICV in FVB neonatal mice at P0. At 4 weeks of age, 3, 10 or 30 mg/kg of LMI070 or vehicle control was administered orally through gavage. 6-7 mice per group were taken down at specified time points (FIG. 8A). After transcardial perfusion with PBS posterior half of the left hemisphere was homogenyzed in Precellys tube. TR-FRET assay was used for measurement of human PGRN expressed from AAV vector. Sample of human cortex was used as a control for physiological PGRN levels (˜200 pg/mg).

For data set [8], the system named is SNX7 minigene switch in HEK293 cells. Put plainly: Comparison of SNX7 switch version 1 and version 2 in HEK293 cells in response to LMI070. It counts as cell-based, human. The settings on record: HEK293, plasmid DL182 (version 2) vs DL180 (version 1), LMI070 100 nm-1 uM, 48 hours post transfection. The method, then: The modified SNX7 minigene (version 2) was inserted into a scAAV vector using molecular cloning techniques. The sequence of the vector comprising the modified SNX7 minigene (version 2) is shown in SEQ ID NO: 95. HEK293 cells were maintained in complete DMEM media and seeded in 24-well plate at 100,000 cells per well densite day before transfection. Each well was transfected with 2 ug of plasmid DNA DL180 containing SNX7 switch version 1 or plasmid DL182 containing SNX7 version 2 using Lipofectamine2000 (Invitrogen) according to manufacturer's protocol. Transfection media was replaced with complete DMEM 4 hours later. Initial 1 mM stock of LMI070 in DMSO was diluted in 1/1,000-1/500,000 in DMEM to achieve concentrations 100 nm-1 uM when added to the cells in 24 hours later. Control cells received 0.1% DMSO. GFP expression was evaluated 48 hours post transfection using fluorescent microscope.

Entries after “also recorded” stand apart in the source; their conditions may differ.

Two molecules from patent US20220307053A1, “REGULATABLE EXPRESSION SYSTEMS” (Novartis AG, priority 2019, published 2022) can be followed below.

Regarding `CC1(C)CC(Oc2ccc(-c3ccc(-c4cn[nH]c4)cc3O)nn2)CC(C)(C)N1` [LMI070, 5-(1H-Pyrazol-4-yl)-2-(6-((2,2,6,6-tetramethylpiperidin-4-yl)oxy)pyridazin-3-yl)phenol], in data set [1], the “GFP expression (mean fluorescence intensity)” value is listed as “dose-dependent increase in GFP expression”. In addition, the “Inclusion of exon B (exonB-exonC vs total transgene mRNA), upregulated as compared to DMSO-treated cells” value in data set [2] (HEK293, 125 nM LMI070) is 75 times. Further, the “exonA-exonC splicing, lower as compared to control DMSO-treated cells” value turned out to be 60 times in data set [2] (HEK293, 1 uM LMI070) and 30 times in data set [3] (500 nM LMI070). The “Inclusion of exon B, upregulated as compared to DMSO-treated cells” value in data set [3] (31 nM LMI070) was “more than 100 times”; in data set [5], “more than 150 times”. Besides, in data set [4], the “expression of hPGRN induced, comparing to DMSO-treated control” value is recorded as “more than 30 times”. In addition, the “exonA-exonC splicing, lower as compared to DMSO-treated cells” value in data set [5] came out at 10 times. The “time after which transgenic protein expression returned to untreated levels” value in data set [6] (30 mg/kg LMI070 orally) worked out at 4 days. Moreover, in data set [6] (ssAAV9 ICV at P0, 30 mg/kg LMI070 orally at 4 weeks), the “hPGRN expression in the brain post LMI070 administration (time course)” value is “rapid and transient induction of hPGRN expression in the brain after 24 hours post LMI070 administration; also recorded: switches on transgene expression in mouse brain in time-dependent manner”. Further, in data set [7] (FVB mice, 3, 10 or 30 mg/kg LMI070 orally), the “transgene expression in brain vs LMI070 dose” value is on record as “dose response; also recorded: switches on transgene expression in mouse brain in dose-dependent manner”. Also, the “accumulation of transgenic hPGRN in the brain (time course)” value in data set [7] (FVB mice, ssAAV9 ICV at P0, 3, 10 or 30 mg/kg LMI070 orally at 4 weeks) is “rapid (12 hours post LMI070 administration) accumulation of transgenic hPGRN in the brain, which starts to decline at 24 hour point”.

B1: modified SNX7 minigene (version 2): SNX7 minigene modified to reduce size and eliminate peptide expression in the absence of LMI070; tested in plasmid DL182 (nucleic acid)
DNA: GAAGAAGAAGATATCAAGTTAGCATTTACAGATTTGGCTGAGGAGAAGAACAGGTAATTAGTGTTGTTTGATATTGCTTCATTTTAAAGTTATTTGCTCATTTAGCATTTGATATTGCTTTCTATTGATTGTCCTAACTACTCCTCTTTCCTCTCCCTTCTCCATTTTTGAAGAGTTTGCAAAGGAAGGAAAGGAGCAGAGACTTGATTGAGCAGAAAATCATTTCAGGGCCTGTTCTCTATTGTCCTTGCTATCCTGTCTTCTGTAGCTATCTGAAACCATCAACAAAGGAGCACACCATGGCATCAGCAAAAGAGTAACAACATCTTTTTTTAAGTTCATTTTGTTTTTCAGTTGATTGTATTTCAATTTTTTTACAGCTGACTTTTCTCAGAGAAGTTTTTTTTTTATTGTAAACATACTTTTTCTAGAAAGTATATTTTAAAATAACATCTTTAACCTTATCTCTGGCTGAATTATTGAATATTTGAAATTATTACATTAACAAAATTTTGTCTTACAGCAGTGGTCCCCAACCTTCTTAGCAGTAGCATCCCTCATTAAGAATTAAAATTTGTAGAAATTGACAAGGATTCTGACAAGCTGTTGGGAGAGAAGAATAGAGCAGATTGCAGTAGGAACAGTTGTGTTAGAATTTATTAATCCTTTAACACTGAAAGTAAACTATTGTTGATTGCCTCTTGGTGTGTTTCCATTATTCAGTGCTCTTGCTAAGTGGGAGTCATTCCTTACATCAACCACCAACCTTCACTTGGAAGAAGCTAGCGAAGATAAACCT
On to B1, for which the “sensitivity of minigene switch in response to LMI070 (GFP expression)” value in data set [8] was “more sensitive than the previous version”.
